Values joined by “and” are separate entries in the source; they are usually repeats but may differ in a detail not shown here. Equal entries are not always repeated.
Experiments:
[1] = system: Jurkat, SKOV-3 and MESO-1 cells; assay: Cytotoxicity assay, statements for all tested cell lines together; format: cell-based; conditions: against the tested cell lines (Jurkat, SKOV-3, MESO-1)
Outline: (§1)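 Cells were seeded at 1000 cells/well and allowed 4 h at 37 °C, 5% CO2 before 2-fold compound dilutions in DMSO were added (0.5% final DMSO). After 72 h exposure, viability was read by CellTiter-Glo luminescence.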

[2] = Cytotoxicity assay (CellTiter-Glo, 72 h), SKOV-3; format: cell-based, human; conditions: human, raw replicate data, read-out: SKOV3 viability (%)
Outline: as §1

[3] = system: human ovarian adenocarcinoma SKOV-3 cells; assay: Cytotoxicity assay (CellTiter-Glo, 72 h), SKOV-3; format: cell-based; conditions: raw replicate data
Outline: as §1

FKBP12 and mTOR = target: T1, FKBP12 and mTOR (Homo sapiens, UniProt P42345+P62942); assay: Fluoppi analysis: induction of FKBP12-mTOR complex formation in transfected HeLa cells; format: cell-based; conditions: for Foci intensity: raw data, one replicate per line
T1 construct: host or cells: HeLa cells
Outline: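 Complex formation read as fluorescent foci: foci intensity over total per-cell intensity, imaged (×20, 9 fields/well) after fixation and Hoechst stain, giving EC50. Cells: HeLa transiently expressing hAG-mTOR and Ash-FKBP12, exposed to compound concentrations for 1 h at 37 °C.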

T lymphoma Jurkat cells = assay: Cytotoxicity assay (CellTiter-Glo, 72 h), Jurkat; format: cell-based; conditions: raw data (replicates)
Outline: as §1

[4] = Cytotoxicity assay (CellTiter-Glo, 72 h), Jurkat; format: cell-based; conditions: human, Jurkat cells (T lymphoma), raw data (replicates)
Outline: as §1

T1 sequence (P42345 2025-2114 limits assumed): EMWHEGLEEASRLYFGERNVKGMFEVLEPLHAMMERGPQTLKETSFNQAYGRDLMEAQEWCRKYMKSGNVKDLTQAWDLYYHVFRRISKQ
T1 sequence (P62942 whole entry): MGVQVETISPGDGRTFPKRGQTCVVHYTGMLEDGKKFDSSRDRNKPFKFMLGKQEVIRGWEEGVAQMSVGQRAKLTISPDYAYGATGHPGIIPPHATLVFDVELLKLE

CO[C@H]1C[C@@H]2CC[C@@H](C)[C@@](O)(O2)C(=O)C(=O)N2CCCC[C@H]2C(=O)O[C@H]([C@H](C)C[C@@H]2CC[C@@H](O)[C@H](OC)C2)CC(=O)[C@H](C)/C=C(\C)[C@@H](O)CC(=O)[C@H](C)C[C@H](C)/C=C/C=C(C)/C=C/1C [Compound 2, 27-demethoxy-19-methyl rapamycin]
Concentration at which cytotoxic activities were shown [1]: over 10 µM
viability at 72 h, 9.53674e-05 uM ([2]; SKOV-3 cells (ovarian adenocarcinoma), conc 9.53674e-5 uM): 94.7%
viability at 72 h, 0.000190735 uM ([2]; SKOV-3 cells (ovarian adenocarcinoma), conc 0.000190735 uM): 95.8%
viability at 72 h, 0.00038147 uM ([2]; SKOV-3 cells (ovarian adenocarcinoma), conc 0.00038147 uM): 97.8%
viability at 72 h, 0.000762939 uM ([2]; SKOV-3 cells (ovarian adenocarcinoma), conc 0.000762939 uM): 98.5%
viability at 72 h, 0.00152588 uM ([2]; SKOV-3 cells (ovarian adenocarcinoma), conc 0.00152588 uM): 106%
viability at 72 h, 0.00305176 uM ([2]; SKOV-3 cells (ovarian adenocarcinoma), conc 0.00305176 uM): 97%
viability at 72 h, 0.00610352 uM ([2]; SKOV-3 cells (ovarian adenocarcinoma), conc 0.00610352 uM): 105%
viability at 72 h, 0.012207 uM ([2]; SKOV-3 cells (ovarian adenocarcinoma), conc 0.012207 uM): 90.8%
viability at 72 h, 0.0244141 uM ([2]; SKOV-3 cells (ovarian adenocarcinoma), conc 0.0244141 uM): 96.5%
viability at 72 h, 0.0488281 uM ([2]; SKOV-3 cells (ovarian adenocarcinoma), conc 0.0488281 uM): 96.1%
viability at 72 h, 0.0976562 uM ([2]; SKOV-3 cells (ovarian adenocarcinoma), conc 0.0976562 uM): 97.7%
viability at 72 h, 0.195312 uM ([2]; SKOV-3 cells (ovarian adenocarcinoma), conc 0.195312 uM): 97.9%
viability at 72 h, 0.390625 uM ([2]; SKOV-3 cells (ovarian adenocarcinoma), conc 0.390625 uM): 98.8%
viability at 72 h, 12.5 uM ([2]; SKOV-3 cells (ovarian adenocarcinoma), conc 12.5 uM): 91.2%
viability at 72 h, 25 uM ([2]; SKOV-3 cells (ovarian adenocarcinoma), conc 25 uM): 100%
viability at 72 h, 50 uM ([2]; SKOV-3 cells (ovarian adenocarcinoma), conc 50 uM): 20.5%
viability at 72 h, 0.78125 uM ([2]; SKOV-3 ovarian adenocarcinoma cells, conc 0.78125 uM): 93.9%
viability at 72 h, 1.5625 uM ([2]; SKOV-3 ovarian adenocarcinoma cells, conc 1.5625 uM): 95.7%
viability at 72 h, 3.125 uM ([2]; SKOV-3 ovarian adenocarcinoma cells, conc 3.125 uM): 102%
viability at 72 h, 6.25 uM ([2]; SKOV-3 ovarian adenocarcinoma cells, conc 6.25 uM): 102%
SKOV3 viability (%) ([3]; conc 9.53674e-5 uM): 102.9% and 98.3%
SKOV3 viability (%) ([3]; conc 0.000190735 uM): 104.0% and 97.1%
SKOV3 viability (%) ([3]; conc 0.00038147 uM): 97.2% and 104.3%
SKOV3 viability (%) ([3]; conc 0.000762939 uM): 101.6% and 95.9%
SKOV3 viability (%) ([3]; conc 0.00152588 uM): 101.4% and 101.1%
SKOV3 viability (%) ([3]; conc 0.00305176 uM): 96.6% and 99.8%
SKOV3 viability (%) ([3]; conc 0.00610352 uM): 102.9% and 97.3%
SKOV3 viability (%) ([3]; conc 0.012207 uM): 93.7%
SKOV3 viability (%) ([3]; conc 0.0244141 uM): 96.2% and 94.8%
SKOV3 viability (%) ([3]; conc 0.0488281 uM): 100.2% and 102.5%
SKOV3 viability (%) ([3]; conc 0.0976562 uM): 99.8% and 96.7%
SKOV3 viability (%) ([3]; conc 0.195312 uM): 94.3% and 95.1%
SKOV3 viability (%) ([3]; conc 0.390625 uM): 99.5% and 95.3%
SKOV3 viability (%) ([3]; conc 0.78125 uM): 97.2%
SKOV3 viability (%) ([3]; conc 1.5625 uM): 98.7% and 99.8%
SKOV3 viability (%) ([3]; conc 3.125 uM): 98.6% and 90.6%
SKOV3 viability (%) ([3]; conc 6.25 uM): 97.2% and 96.7%
SKOV3 viability (%) ([3]; conc 12.5 uM): 95.5% and 90.7%
SKOV3 viability (%) ([3]; conc 25 uM): 97.5%
SKOV3 viability (%) ([3]; conc 50 uM): 21.5% and 18.1%
PPI-inducing (binding enhancing) activity between FKBP12 and mTOR compared with rapamycin (1), in words (FKBP12 and mTOR; Fluoppi): relatively weaker activities
EC50 (FKBP12 and mTOR; Fluoppi, HeLa cells, 1 h treatment, three independent biological replicates, read-out: EC50, induction of the formation of FKBP-mTOR complex): 45 nM
Foci intensity (FKBP12 and mTOR; conc 9.53674e-5 uM): 0.02068 and 0.01364 and 0.008639
Foci intensity (FKBP12 and mTOR; conc 0.000190735 uM): 0.01744 and 0.007135 and 0.0155
Foci intensity (FKBP12 and mTOR; conc 0.00038147 uM): 0.04148 and 0.01907 and 0.0147
Foci intensity (FKBP12 and mTOR; conc 0.000762939 uM): 0.01977 and 0.01076 and 0.01197
Foci intensity (FKBP12 and mTOR; conc 0.00152588 uM): 0.06388 and 0.02909 and 0.00714
Foci intensity (FKBP12 and mTOR; conc 0.00305176 uM): 0.01847 and 0.0327 and 0.01128
Foci intensity (FKBP12 and mTOR; conc 0.00610352 uM): 0.01966 and 0.01473 and 0.01204
Foci intensity (FKBP12 and mTOR; conc 0.012207 uM): 0.01622 and 0.03454 and 0.02495
Foci intensity (FKBP12 and mTOR; conc 0.0244141 uM): 0.05679 and 0.05606 and 0.04583
Foci intensity (FKBP12 and mTOR; conc 0.0488281 uM): 0.1221 and 0.237 and 0.2378
Foci intensity (FKBP12 and mTOR; conc 0.0976562 uM): 0.306 and 0.2748 and 0.2045
Foci intensity (FKBP12 and mTOR; conc 0.195312 uM): 0.3211 and 0.3269 and 0.2723
Foci intensity (FKBP12 and mTOR; conc 0.390625 uM): 0.3599 and 0.2761 and 0.3358
Foci intensity (FKBP12 and mTOR; conc 0.78125 uM): 0.3175 and 0.3752 and 0.289
Foci intensity (FKBP12 and mTOR; conc 1.5625 uM): 0.3697 and 0.3114 and 0.3338
Foci intensity (FKBP12 and mTOR; conc 3.125 uM): 0.3541 and 0.2997 and 0.3309
Foci intensity (FKBP12 and mTOR; conc 6.25 uM): 0.3255 and 0.2796 and 0.2953
Foci intensity (FKBP12 and mTOR; conc 12.5 uM): 0.3157 and 0.354 and 0.2564
Foci intensity (FKBP12 and mTOR; conc 25 uM): 0.3263 and 0.3214 and 0.3499
Foci intensity (FKBP12 and mTOR; conc 50 uM): 0.3058 and 0.2791 and 0.2528
Jurkat viability (%) (T lymphoma Jurkat cells; conc 9.53674e-5 uM): 102.6% and 90.2%
Jurkat viability (%) (T lymphoma Jurkat cells; conc 0.000190735 uM): 99.7% and 100.1%
Jurkat viability (%) (T lymphoma Jurkat cells; conc 0.00038147 uM): 102.4% and 92.6%
Jurkat viability (%) (T lymphoma Jurkat cells; conc 0.000762939 uM): 99.9% and 100.9%
Jurkat viability (%) (T lymphoma Jurkat cells; conc 0.00152588 uM): 104.7% and 99.5%
Jurkat viability (%) (T lymphoma Jurkat cells; conc 0.00305176 uM): 96.2% and 98.5%
Jurkat viability (%) (T lymphoma Jurkat cells; conc 0.00610352 uM): 101.1%
Jurkat viability (%) (T lymphoma Jurkat cells; conc 0.012207 uM): 91.7%
Jurkat viability (%) (T lymphoma Jurkat cells; conc 0.0244141 uM): 102.1%
Jurkat viability (%) (T lymphoma Jurkat cells; conc 0.0488281 uM): 95.8% and 99.2%
Jurkat viability (%) (T lymphoma Jurkat cells; conc 0.0976562 uM): 102.7% and 105.1%
Jurkat viability (%) (T lymphoma Jurkat cells; conc 0.195312 uM): 95.3% and 96.4%
Jurkat viability (%) (T lymphoma Jurkat cells; conc 0.390625 uM): 104.4%
Jurkat viability (%) (T lymphoma Jurkat cells; conc 0.78125 uM): 92.4% and 89.9%
Jurkat viability (%) (T lymphoma Jurkat cells; conc 1.5625 uM): 98.7%
Jurkat viability (%) (T lymphoma Jurkat cells; conc 3.125 uM): 91.9% and 84.9%
Jurkat viability (%) (T lymphoma Jurkat cells; conc 6.25 uM): 85.7% and 88.3%
Jurkat viability (%) (T lymphoma Jurkat cells; conc 12.5 uM): 78.8% and 80.3%
Jurkat viability (%) (T lymphoma Jurkat cells; conc 25 uM): 27.8% and 28.9%
viability at 72 h, 9.53674e-05 uM ([4]; conc 9.53674e-5 uM): 101%
viability at 72 h, 0.000190735 uM ([4]; conc 0.000190735 uM): 101%
viability at 72 h, 0.00038147 uM ([4]; conc 0.00038147 uM): 105%
viability at 72 h, 0.000762939 uM ([4]; conc 0.000762939 uM): 110%
viability at 72 h, 0.00152588 uM ([4]; conc 0.00152588 uM): 104%
viability at 72 h, 0.00305176 uM ([4]; conc 0.00305176 uM): 96%
viability at 72 h, 0.00610352 uM ([4]; conc 0.00610352 uM): 102%
viability at 72 h, 0.012207 uM ([4]; conc 0.012207 uM): 103%
viability at 72 h, 0.0244141 uM ([4]; conc 0.0244141 uM): 98.4%
viability at 72 h, 0.0488281 uM ([4]; conc 0.0488281 uM): 101%
viability at 72 h, 0.0976562 uM ([4]; conc 0.0976562 uM): 98.8%
viability at 72 h, 0.195312 uM ([4]; conc 0.195312 uM): 97.6%
viability at 72 h, 0.390625 uM ([4]; conc 0.390625 uM): 103%
viability at 72 h, 0.78125 uM ([4]; conc 0.78125 uM): 95.4%
viability at 72 h, 1.5625 uM ([4]; conc 1.5625 uM): 97.9%
viability at 72 h, 3.125 uM ([4]; conc 3.125 uM): 90.3%
viability at 72 h, 6.25 uM ([4]; conc 6.25 uM): 93.3%
viability at 72 h, 12.5 uM ([4]; conc 12.5 uM): 79.6%
viability at 72 h, 25 uM ([4]; conc 25 uM): 26.4%
viability at 72 h, 50 uM ([4]; conc 50 uM): 0.7%
